Results on 16 molecules are retold here after the OPERA property sets (Mansouri et al. 2018).

The logP is the decadic logarithm of the partition coefficient of the neutral form, usually between octanol and water. Higher therefore signals higher lipophilicity. On to `CCCCCC(O)c1ccc(O)c(O)c1` (stereo unspecified), for which the logP worked out at 2.32. On to `CCCCc1ccc(O)c(O)c1`, for which the lipophilicity (logP) amounted to 2.96. Under `O=C(C=Cc1ccc(O)c(O)c1)NCCc1ccccc1` stands 2.72; under `CCCCNC(=O)c1ccc2cc(O)c(O)cc2c1`, 2.72.

For `CCc1ccc2cc(O)c(O)cc2c1`, the lipophilicity (logP) is 3.25.

In turn, `CCCCC=Cc1ccc(O)c(O)c1` gave a logP of 3.82. The figure for `O=C(C=Cc1ccc(O)c(O)c1)NCc1ccccc1` is 2.48; for `CCCC(=O)C=Cc1ccc(O)c(O)c1` it is 2.61; for `O=C(C=Cc1ccc(O)c(O)c1)CCCCCO` it is 1.67.

With `COc1ccc(CCNC(=O)C=Cc2ccc(O)c(O)c2)cc1OC`, the logP was determined as 2.07. The figure for `COc1ccc(NC(=O)C=Cc2ccc(O)c(O)c2)cc1OC` is 2.3. For the molecule `COc1ccc(CNC(=O)C=Cc2ccc(O)c(O)c2)cc1OC`, the logP stood at 1.99. The figure for `CCCCOC(=O)/C=C/c1ccc(O)c(O)c1` is 3.53; for `CCCCCCNC(=O)C=Cc1ccc(O)c(O)c1` it is 3.37. The molecule `CCOc1ccc2cc(O)c(O)cc2c1` gave a logP of 2.7. `CCCCCCNC(=O)c1ccc(O)c(O)c1` displayed a logP of 2.71.
